The star is where a group is joined. ACC = NC(=O)Cc1cc(=O)oc2cc(N*)ccc12; AMC = Cc1cc(=O)oc2cc(N*)ccc12; Boc = CC(C)(C)OC(=O)*
What was measured:
KLK7 [1] = target: T1, KLK7 (Homo sapiens, UniProt P49862); assay: Enzyme kinetics to calculate KM, KLK7; format: biochemical; settings: fluorogenic substrate, KLK7 34 nM, 2% DMSO, room temperature, 30 min, Michaelis-Menten model, triplicates
T1 construct: gift from the group of Judith Clements (QUT)
Procedure: (§1) Reagents were obtained from VWR, Sigma Aldrich, Sartorius, Fluorochem, AGTC, Novabiochem, TCI, Alfa Aesar, Iris Biotech, Thermofisher and Bachem. […]
(§2) (Code 7449-SE) and KLK8 (Code 2025-SE) were obtained from BioTechne. KLK6 was obtained from the group of Aubry Miller (DKFZ) and KLK7 was obtained from the group of Judith Clements (QUT).
(§3) The manufacturer’s recommended buffers were used with uPA and tPA but not KLK8. […]
(§4) Fluorescence measurements were measured using an Envision plate reader. Fluorescence data was processed using Graphpad Prism 8. […]
(§5) 2-chlorotrityl chloride resin. […]
(§6) 380nm/440nm. The data was analysed using Graphpad Prism 8. The initial slopes of each plot were calculated and presented in a bar chart, which represents the substrate specificity of the KLK. Error bars represent the standard deviation between the three replicates.
(§7) Enzyme kinetics to calculate KM. Purified fluorogenic substrates were measured in triplicates. […]
(§8) temperature, fluorescence was read once every 30 s for 30 min from an Envision plate reader at excitation/emission wavelengths of 380nm/440nm. The data was analysed with Graphpad Prism 8, using the Michaelis-Menten model.
(§9) Enzyme kinetics to calculate kobs/I. All ABPs and inhibitors were measured in triplicates. […]
(§10) using a pseudo first order kinetics model. The observed rate of inhibition (kobs) was calculated by plotting a one-phase association. […]

KLK8 [2] = target: T2, KLK8 (Homo sapiens, UniProt O60259); assay: Enzyme kinetics to calculate KM, KLK8; format: biochemical; settings: fluorogenic substrate, KLK8 1 nM, 2% DMSO, room temperature, 30 min, Michaelis-Menten model, triplicates
T2 construct: Active recombinant FGFBP1 (Code 1593-FB), HSPG2 (Code 2364-ER), uPA (Code 1310-SE), tPA (Code 7449-SE) and KLK8 (Code 2025-SE) were obtained from BioTechne; purchased BioTechne 2025-SE
T2 sequence (O60259 33-260): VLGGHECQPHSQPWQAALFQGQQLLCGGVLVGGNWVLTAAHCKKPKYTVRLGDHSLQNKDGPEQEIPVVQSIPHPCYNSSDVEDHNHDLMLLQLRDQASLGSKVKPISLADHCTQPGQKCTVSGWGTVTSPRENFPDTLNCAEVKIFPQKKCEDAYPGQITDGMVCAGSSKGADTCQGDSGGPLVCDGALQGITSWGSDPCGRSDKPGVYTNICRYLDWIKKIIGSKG
Procedure: as §1, §2, §3, §4, §5, §6, §7, §8, §9, §10

KLK8 [3] = target: T2, KLK8; assay: Enzyme kinetics to calculate kobs/I, KLK8; format: biochemical; settings: KLK8 1 nM, Boc-VPR-AMC 30 µM, 100 mM Na2PO4 0.01% Tween20 pH 8.5, room temperature, 30 min, pseudo first order kinetics, triplicates
[4] = target: T3, urokinase plasminogen activator (uPA) (Homo sapiens, UniProt P00749); assay: Enzyme kinetics to calculate kobs/I, uPA; format: biochemical; settings: uPA 2 nM, Z-GGR-AMC 60 µM, manufacturer's buffer, room temperature, 30 min, pseudo first order kinetics, triplicates
T3 construct: purchased BioTechne 1310-SE
Procedure: as §1, §2
(§11) The manufacturer’s recommended buffers were used with uPA and tPA but not KLK8. The KLK6 assay buffer was as follows: 50 mM Tris 150 mM NaCl, 1 mM EDTA, 0.05% Tween20, pH 7.5. The KLK7/8 buffer was as follows: 100 mM Na2PO4, 0.01% Tween20, pH 8.5. Fluorescence measurements were measured using an Envision plate reader. Fluorescence data was processed using Graphpad Prism 8. […]
as §5

KLK7 [5] = target: T1, KLK7; assay: Enzyme kinetics to calculate kobs/I, KLK7; format: biochemical; settings: KLK7 34 nM, substrate 24 5 µM, 100 mM Na2PO4 0.01% Tween20 pH 8.5, room temperature, 30 min, pseudo first order kinetics, triplicates
Procedure: as §1, §2, §11, §5

KLK6 = assay: Enzyme kinetics to calculate kobs/I, KLK6; format: biochemical, human; settings: KLK6 1.5 nM, fluorogenic substrate 22 5 µM, 50 mM Tris 150 mM NaCl 1 mM EDTA 0.05% Tween20 pH 7.5, room temperature, read every 30 s for 30 min, ex/em 380/440 nm, pseudo first order kinetics, corrected by (1 + [S]/KM), triplicates
KLK6[S195A] = assay: In-gel fluorescence labelling of inactive KLK6[S195A]; format: binding, human; settings: 1 h incubation
From the text: (§12) Figure 3 ABP validation. […] Pulldown lanes show enriched proteins after streptavidin binding.

[6] = test system: recombinant wild-type KLK6; assay: In-gel fluorescence labelling of recombinant wild-type KLK6; format: binding, human; settings: 1 h incubation
From the text: as §12

[7] = target: T4, tissue plasminogen activator (tPA) (Homo sapiens, UniProt P00750); assay: Enzyme kinetics to calculate kobs/I, tPA; format: biochemical; settings: tPA 2 nM, Z-GGR-AMC 60 µM, manufacturer's buffer, room temperature, 30 min, pseudo first order kinetics, triplicates
T4 construct: purchased BioTechne 7449-SE
Procedure: as §1, §2, §11, §5

endogenous tPA and uPA = assay: Competition labelling in Capan-2 conditioned media (NeutrAvidin-HRP blot); settings: 2 h preincubation then bABP 17 1 h, concentrations as high as 40 μM
From the text: as §12

T1 sequence (P49862 30-253): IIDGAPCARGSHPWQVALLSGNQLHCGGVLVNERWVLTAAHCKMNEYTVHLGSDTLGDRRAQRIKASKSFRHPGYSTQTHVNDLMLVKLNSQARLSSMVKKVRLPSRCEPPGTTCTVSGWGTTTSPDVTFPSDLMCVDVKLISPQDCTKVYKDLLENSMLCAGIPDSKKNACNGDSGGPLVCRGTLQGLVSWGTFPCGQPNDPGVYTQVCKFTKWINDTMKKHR
T4 sequence (P00750 36-562): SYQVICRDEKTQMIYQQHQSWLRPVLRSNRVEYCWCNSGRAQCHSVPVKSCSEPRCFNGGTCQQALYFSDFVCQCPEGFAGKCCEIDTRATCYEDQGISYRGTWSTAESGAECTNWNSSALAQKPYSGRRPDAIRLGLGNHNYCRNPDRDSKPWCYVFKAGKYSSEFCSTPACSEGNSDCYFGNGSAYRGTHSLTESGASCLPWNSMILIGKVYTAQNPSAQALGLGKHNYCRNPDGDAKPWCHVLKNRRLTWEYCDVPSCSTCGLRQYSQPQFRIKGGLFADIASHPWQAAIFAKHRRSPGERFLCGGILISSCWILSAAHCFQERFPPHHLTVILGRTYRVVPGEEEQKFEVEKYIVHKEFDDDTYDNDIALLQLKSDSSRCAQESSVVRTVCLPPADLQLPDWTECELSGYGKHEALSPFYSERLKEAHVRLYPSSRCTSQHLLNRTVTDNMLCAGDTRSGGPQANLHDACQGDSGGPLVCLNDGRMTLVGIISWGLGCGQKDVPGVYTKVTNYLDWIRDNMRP

For “Ac-KHLF-{ACC} (SMILES CC(=O)N[C@@H](CCCCN)C(=O)N[C@@H](Cc1c[nH]cn1)C(=O)N[C@@H](CC(C)C)C(=O)N[C@@H](Cc1ccccc1)C(=O)Nc1ccc2c(CC(N)=O)cc(=O)oc2c1) [compound 24, purified fluorogenic substrate for KLK7]”, the Km (KLK7 [1]) was 56 µM.

With Boc-Val-Pro-Arg-{AMC} the Km (KLK8 [2]) was 290 µM.

“Cy5–DPhe–Ser(Z)–Dht–ArgPP [compound 21, Cy5-tagged KLK6 ABP]” was tested, and the “KLK8 kobs/I” value (KLK8 [3]) was 40 M^–1 s^–1, the “uPA kobs/I” value [4] was 0 M⁻¹ s⁻¹ and the “KLK7 kobs/I” value (KLK7 [5]) was 26 M⁻¹ s⁻¹. For the same substance, the “KLK6 kobs/I” value (KLK6) was 1000 M^–1 s^–1, the “labeling of inactive KLK6[S195A] mutant” value (KLK6[S195A]) was “not labeled” and the “labeling of active recombinant KLK6” value [6] was “dose-dependent labeling”. The “tPA kobs/I” value [7] was 8 M⁻¹ s⁻¹.

Yn–DPhe–Ser(Z)–Dht–ArgPP [compound 19] was tested, and the “engagement of endogenous tPA and uPA” value (endogenous tPA and uPA) was “does not substantively engage” and the “KLK6 kobs/I” value (KLK6) was 3000 M^–1 s^–1.

Reference: article PMC9756341 (Journal of the American Chemical Society, 2022)
